The nature of test [1]: Protein leaching from hair fibres (BCA protein assay kit). The conditions noted are these: for Protein leaching from hair fibres, Average: 1% test material + 2% SDS, pH about 6.0, 10 mg hair fibres, 37° C., 24 h; for Effect on protein leaching induced by SDS (in words): summary of Table 1. As to the method:
Protein leaching assays were conducted in order to find out the protective effect of test materials on protein leaching from hair.
Chinese hair fibres from the same head were washed with shampoo and air dried. Then they were immersed in ether for 2 min to remove lipid components and rinsed with running water and air. The hair fibres were cut into ˜2 mm length with scissors.
A 200 μL solution consisting of 1% test material (matrine or oxymatrine respectively) and 2% sodium dodecyl sulphate (SDS), where pH was adjusted to about 6.0 with citric acid, was incubated with 10 mg hair fibres at 37° C. for 24 h.
Protein leaching from the treated hair fibres was determined with a BCA protein assay kit.
The data were collected and analysed with One-Way ANOVA by using SPSS software. LSD was used when variances were equal, and Tamhane's T2 was used when variances were not equal.

Test [2] is described as follows: Differential scanning calorimetry (DSC) of bleach-damaged hair fibres. Particulars: for Average Denaturation Temperature Td / Sub From damaged (Td increase over damaged hair): bleached hair immersed in 1% aqueous solution at pH 5.5 for 1 hour; for Repair of damage caused by bleaching hair fibre (in words): summary of Table 2. As to the method: To prepare damaged hair fibre, European hair fibres were bleached with L' Oreal Platifiz precision powder and Oxydant crème (1:1.5) for 30 min, rinsed completely with running tap water and naturally dried overnight before the next application. These hair fibres were immersed in a 1% aqueous solution of test material (matrine or oxymatrine respectively) and water (as a control) at pH 5.5 (adjusted with HCl and NaOH) for 1 hour respectively, rinsed with distilled water for 30 sec and naturally dried overnight and then they were cut into ˜2 mm lengths with scissors.
For the DSC investigation a Mettler Toledo DSC823e analyser was used. About 6 mg of sample was weighed into a pressure resistant (20 bar), stainless steel, large volume pan (120 μl capacity). 50 μl of water was added and the pan was sealed. Samples were then mixed using a rotary mixer and left overnight to allow the water to equilibrate throughout the sample. Samples were run through a temperature programme of […] at a rate of 10° C./min in 30 ml/min nitrogen atmosphere. The helix transition temperature was collected and analyzed with one-way ANOVA. Each sample was carried out three times.
On the technique in general: Differential scanning calorimetry records heat flow against a reference as temperature is scanned.

Marks after values point to notes of the source that are not given here.

Consider `O=C(O)CC(O)(CC(=O)O)C(=O)O` [Citric acid], for which the “Protein leaching from hair fibres, Average” value (from here on “Protein leaching … Average”) in test [1] (2nd Run) amounted to 1.121 µg/mg.
As for `O=C1CCC[C@@H]2[C@H]3CCC[N+]4([O-])CCC[C@@H](CN12)[C@@H]34` (single isomer, unassigned; (+)) [Oxymatrine, (+)-oxymatrine], the “Protein leaching … Average” value in test [1] (1st Run) was 0.854** μg/mg; in test [1] (2nd Run) it was 1.035** μg/mg. Besides, the “Effect on protein leaching induced by SDS (in words)” value in test [1] is recorded as “reduce protein leaching”. Moreover, the “Average Denaturation Temperature Td” value is 152.24** ° C in test [2] (1st run); 152.24 °C in test [2] (1st run, listed as oxymatrine); 150.67** ° C in test [2] (2nd run). In addition, the “Sub From damaged (Td increase over damaged hair)” value in test [2] (1st run) was 9.68 °C; in test [2] (2nd run), 7.49. Moreover, the “Repair of damage caused by bleaching hair fibre (in words)” value in test [2] was “fully repair the damage”.
Regarding `O=C1CCC[C@@H]2[C@H]3CCCN4CCC[C@@H](CN12)[C@@H]34` [Matrine, (+)-matrine], the results for the “Protein leaching … Average” value in test [1] (1st Run) and in test [1] (2nd Run) were 0.792** μg/mg and 1.105* μg/mg, respectively. In test [1], the “Effect on protein leaching induced by SDS (in words)” value is on record as “reduce protein leaching”. Further, the “Average Denaturation Temperature Td” value in test [2] (1st run) is 148.00** ° C; in test [2] (1st run, listed as matrine), 148 °C; in test [2] (2nd run), 148.07** ° C. The “Sub From damaged (Td increase over damaged hair)” value in test [2] (1st run) was determined as 5.43 °C; in test [2] (2nd run), 4.89. The “Repair of damage caused by bleaching hair fibre (in words)” value in test [2] is “fully repair the damage”.

The values are drawn from patent publication US20080206181A1, “Hair treatment compositions containing sophora alkaloids” (Conopco Inc, d/b/a UNILEVER, priority 2007, published 2008).
